Data as given in the supplement of paper PMC10331698.
± gives the standard deviation of the averaged measurements.

Assays:
Assay in all cases: level (log10 ratio to DMSO vehicle control); higher = higher biomarker level / cell amount than vehicle control
[1] = compound: O=C(O)C(F)(F)C(F)(F)C(F)(F)C(F)(F)C(F)(F)C(F)(F)C(F)(F)C(F)(F)C(F)(F)C(F)F [11-H-Perfluoroundecanoic acid]; conditions: in DMSO
Protocol: (§1)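 BioMAP Diversity Plus panel of 12 human primary cell co-culture systems (3C, 4H, LPS, SAg, BT, BF4T, BE3C, CASM3C, HDF3CGF, KF3CT, MyoF, Mphg). Compounds were added 1 h before stimulation and left for 24 h (MyoF 48 h; BT 72 h for soluble read-outs or 6 d for IgG). Biomarkers were read by ELISA, cytotoxicity by SRB, PBMC viability and proliferation by Alamar Blue. Each well value was divided by the mean of 8 DMSO control wells on the same plate and log10 transformed; duplicate blinded samples were tested at 4 concentrations.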

[2] = compound: O=S(=O)(O)C(F)(F)C(F)(F)C(F)(F)C(F)(F)C(F)(F)C(F)(F)C(F)(F)C(F)(F)C(F)(F)C(F)(F)F [Sodium perfluorodecanesulfonate]; conditions: in DMSO
Protocol: as §1

[3] = compound: FC(F)(F)C(F)(F)C(F)(F)C(F)(F)C(F)(F)C(F)(F)CC1CO1 [3-(Perfluorohexyl)-1,2-epoxypropane]; conditions: in DMSO
Protocol: as §1

[4] = compound: C=C(C)C(=O)OCCC(F)(F)C(F)(F)C(F)(F)C(F)(F)C(F)(F)C(F)(F)F [6:2 Fluorotelomer methacrylate]; conditions: in DMSO
Protocol: as §1

[5] = compound: NC(=O)C(F)(F)C(F)(F)C(F)(F)C(F)(F)C(N)=O [Octafluoroadipamide]; conditions: in DMSO
Protocol: as §1

[6] = compound: O=S(=O)(Cl)C(F)(F)C(F)(F)C(F)(F)C(F)(F)C(F)(F)C(F)(F)C(F)(F)C(F)(F)F [Perfluoro-1-octanesulfonyl chloride]; conditions: in DMSO
Protocol: as §1

[7] = compound: NC(=O)C(F)(F)C(F)(F)C(F)(F)C(F)(F)F [Nonafluoropentanamide]; conditions: in DMSO
Protocol: as §1

[8] = compound: FC(F)(F)C(F)(F)C(F)(F)CC1CO1 [1H,1H-Heptafluorobutyl epoxide]; conditions: in DMSO
Protocol: as §1

[9] = compound: O=S(=O)(F)C(F)(F)C(F)(F)C(F)(F)C(F)(F)C(F)(F)C(F)(F)C(F)(F)C(F)(F)F [Perfluorooctanesulfonyl fluoride]; conditions: in DMSO
Protocol: as §1

[10] = compound: FC(F)(F)C(F)(F)C(F)(F)CI [Heptafluorobutyl iodide]; conditions: in DMSO
Protocol: as §1

[11] = compound: NC(=O)C(F)(F)C(F)(F)C(F)(F)C(F)F; conditions: in DMSO
Protocol: as §1

[12] = compound: OCC(F)(F)C(F)(F)C(F)(F)CO [Hexafluoroamylene glycol]; conditions: in DMSO
Protocol: as §1

[13] = compound: FC(F)(F)C(F)(F)C(F)(F)C(F)(F)C(F)(F)C(F)(F)C(F)(F)I [1-Iodopentadecafluoroheptane]; conditions: in DMSO
Protocol: as §1

[14] = compound: O=C(O)C=CC(F)(C(F)(F)F)C(F)(F)F [3-(Perfluoroisopropyl)-2-propenoic acid]; conditions: in DMSO
Protocol: as §1

[15] = compound: FC(F)(F)C(F)(F)CNCC(F)(F)C(F)(F)F [Bis(1H,1H-perfluoropropyl)amine]; conditions: in DMSO
Protocol: as §1

[16] = compound: O=S(=O)(O)CCC(F)(F)C(F)(F)C(F)(F)C(F)(F)C(F)(F)C(F)(F)F [6:2 Fluorotelomer sulfonic acid]; conditions: in DMSO
Protocol: as §1

[17] = compound: C=CC(=O)OCC(F)(F)C(F)(F)C(F)(F)COC(=O)C=C [1H,1H,5H,5H-Perfluoro-1,5-pentanediol diacrylate]; conditions: 6700 nM; in DMSO
Protocol: as §1

[18] = compound: NS(=O)(=O)C(F)(F)C(F)(F)C(F)(F)C(F)(F)C(F)(F)C(F)(F)F [Perfluorohexanesulfonamide]; conditions: in DMSO
Protocol: as §1

[19] = compound: COC(=O)C(F)(F)C(F)(F)OC(F)(C(F)(F)F)C(F)(F)OC(F)=C(F)F [Methyl perfluoro(3-(1-ethenyloxypropan-2-yloxy)propanoate)]; conditions: in DMSO
Protocol: as §1

Test System: BE3C:CD87/uPAR
- level (log10) ([1]; 6700 nM): 0.0235 ± 0.026
- level (log10) ([1]; 20000 nM): -0.264 ± 0.019
- level (log10) ([2]; 1500 nM): 0.029 ± 0.011
- level (log10) ([2]; 4400 nM): 0.066 ± 0.02
- level (log10) ([2]; 13000 nM): 0.005 ± 0.0014
- level (log10) ([2]; 40000 nM): -0.179 ± 0.011
- level (log10) ([3]; 6700 nM): 0.0085 ± 0.029
- level (log10) ([3]; 20000 nM): 0.032 ± 0.037
- level (log10) ([3]; 60000 nM): 0.06 ± 0.0028
- level (log10) ([4]; 6700 nM): -0.047 ± 0.027
- level (log10) ([4]; 20000 nM): -0.0335 ± 0.019
- level (log10) ([4]; 60000 nM): -0.0305 ± 0.028
- level (log10) ([5]; 6700 nM): -0.0295 ± 0.043
- level (log10) ([5]; 20000 nM): -0.044 ± 0.071
- level (log10) ([5]; 60000 nM): -0.0195 ± 0.093
- level (log10) ([6]; 6700 nM): 0.0825 ± 0.025
- level (log10) ([6]; 20000 nM): 0.0795 ± 0.0064
- level (log10) ([6]; 60000 nM): -0.276 ± 0.052
- level (log10) ([7]; 6700 nM): 0.012
- level (log10) ([7]; 20000 nM): 0.0185 ± 0.015
- level (log10) ([7]; 60000 nM): 0.0115 ± 0.018
- level (log10) ([8]; 6700 nM): 0.0105 ± 0.0092
- level (log10) ([8]; 20000 nM): -0.004 ± 0.024
- level (log10) ([8]; 60000 nM): -0.004 ± 0.023
- level (log10) ([9]; 6700 nM): -0.0005 ± 0.011
- level (log10) ([9]; 20000 nM): 0.0155 ± 0.00071
- level (log10) ([9]; 60000 nM): 0.0375 ± 0.0064
- level (log10) ([10]; 6700 nM): 0.0115 ± 0.033
- level (log10) ([10]; 20000 nM): -0.0435 ± 0.016
- level (log10) ([10]; 60000 nM): -0.001 ± 0.0057
- level (log10) ([11]; 6700 nM): -0.02 ± 0.011
- level (log10) ([11]; 20000 nM): -0.0205 ± 0.0035
- level (log10) ([11]; 60000 nM): -0.0145 ± 0.015
- level (log10) ([12]; 6700 nM): -0.0205 ± 0.011
- level (log10) ([12]; 20000 nM): -0.016 ± 0.037
- level (log10) ([12]; 60000 nM): 0.0025 ± 0.022
- level (log10) ([13]; 6700 nM): 0.001 ± 0.034
- level (log10) ([13]; 20000 nM): 0.008 ± 0.011
- level (log10) ([14]; 6700 nM): 0.005 ± 0.0085
- level (log10) ([14]; 20000 nM): 0.002 ± 0.045
- level (log10) ([14]; 60000 nM): 0.052 ± 0.038
- level (log10) ([15]; 6700 nM): -0.0335 ± 0.049
- level (log10) ([15]; 20000 nM): -0.0475 ± 0.06
- level (log10) ([15]; 60000 nM): -0.012 ± 0.018
- level (log10) ([16]; 6700 nM): 0.003 ± 0.0014
- level (log10) ([16]; 20000 nM): -0.0065 ± 0.011
- level (log10) ([16]; 60000 nM): 0.0235 ± 0.018
- level (log10) [17]: 0.0195 ± 0.0064
- level (log10) ([18]; 6700 nM): 0.0005 ± 0.0035
- level (log10) ([18]; 20000 nM): -0.0055 ± 0.018
- level (log10) ([18]; 60000 nM): -0.13 ± 0.018
- level (log10) ([19]; 6700 nM): 0.038 ± 0.038
- level (log10) ([19]; 20000 nM): 0.05 ± 0.041

Test System: KF3CT:CXCL10/IP-10
- level (log10) ([1]; 6700 nM): -0.036 ± 0.0057
- level (log10) ([1]; 20000 nM): -0.211 ± 0.011
- level (log10) ([2]; 1500 nM): 0 ± 0.023
- level (log10) ([2]; 4400 nM): -0.021 ± 0.027
- level (log10) ([2]; 13000 nM): -0.015 ± 0.025
- level (log10) ([2]; 40000 nM): -0.0225 ± 0.0078
- level (log10) ([3]; 6700 nM): 0.0285 ± 0.00071
- level (log10) ([3]; 20000 nM): 0.0305 ± 0.0035
- level (log10) ([3]; 60000 nM): 0.0295 ± 0.0021
- level (log10) ([4]; 6700 nM): 0.019 ± 0.0057
- level (log10) ([4]; 20000 nM): 0.0245 ± 0.013
- level (log10) ([4]; 60000 nM): 0.031 ± 0.0014
- level (log10) ([5]; 6700 nM): -0.002 ± 0.0042
- level (log10) ([5]; 20000 nM): 0.002 ± 0.0071
- level (log10) ([5]; 60000 nM): 0.0005 ± 0.005
- level (log10) ([6]; 6700 nM): -0.0165 ± 0.00071
- level (log10) ([6]; 20000 nM): -0.0455 ± 0.00071
- level (log10) ([6]; 60000 nM): -0.16 ± 0.0099
- level (log10) ([7]; 6700 nM): -0.011 ± 0.0071
- level (log10) ([7]; 20000 nM): 0.009 ± 0.0042
- level (log10) ([7]; 60000 nM): -0.001 ± 0.017
- level (log10) ([8]; 6700 nM): -0.011 ± 0.027
- level (log10) ([8]; 20000 nM): -0.012 ± 0.021
- level (log10) ([8]; 60000 nM): -0.0175 ± 0.016
- level (log10) ([9]; 6700 nM): -0.0015 ± 0.0035
- level (log10) ([9]; 20000 nM): -0.0105 ± 0.00071
- level (log10) ([9]; 60000 nM): -0.011 ± 0.014
- level (log10) ([10]; 6700 nM): -0.009 ± 0.0014
- level (log10) ([10]; 20000 nM): -0.0175 ± 0.0078
- level (log10) ([10]; 60000 nM): -0.013 ± 0.0028
- level (log10) ([11]; 6700 nM): -0.001 ± 0.0014
- level (log10) ([11]; 20000 nM): -0.001 ± 0.013
- level (log10) ([11]; 60000 nM): 0.0025 ± 0.0064
- level (log10) ([12]; 6700 nM): 0.0015 ± 0.015
- level (log10) ([12]; 20000 nM): -0.008 ± 0.0099
- level (log10) ([12]; 60000 nM): -0.0035 ± 0.0092
- level (log10) ([13]; 6700 nM): -0.005 ± 0.014
- level (log10) ([13]; 20000 nM): -0.0085 ± 0.00071
- level (log10) ([14]; 6700 nM): 0.0105 ± 0.035
- level (log10) ([14]; 20000 nM): 0.0075 ± 0.032
- level (log10) ([14]; 60000 nM): 0.0125 ± 0.023
- level (log10) ([15]; 6700 nM): -0.0045 ± 0.0078
- level (log10) ([15]; 20000 nM): -0.0025 ± 0.0035
- level (log10) ([15]; 60000 nM): 0.0085 ± 0.00071
- level (log10) ([16]; 6700 nM): -0.0105 ± 0.011
- level (log10) ([16]; 20000 nM): -0.0055 ± 0.015
- level (log10) ([16]; 60000 nM): -0.0135 ± 0.00071
- level (log10) [17]: -0.023 ± 0.0085
- level (log10) ([18]; 6700 nM): -0.012 ± 0.013
- level (log10) ([18]; 20000 nM): -0.019 ± 0.014
- level (log10) ([18]; 60000 nM): -0.0875 ± 0.0035
- level (log10) ([19]; 6700 nM): -0.0235 ± 0.0021
- level (log10) ([19]; 20000 nM): -0.023 ± 0.0057
